From ChEMBL document CHEMBL5579820, “New insights into butyrylcholinesterase: Pharmaceutical applications, selective inhibitors and multitarget-directed ligands” (Eur J Med Chem, 2024)
pIC50: −log10 of the molar value.

Tests used:
[1] = molecular target: T1, Amine oxidase [flavin-containing] A (Homo sapiens, UniProt P21397); test: Inhibition of human recombinant MAO-A using kynuramine as substrate by incubated for 75 mins by spectrophotometric analysis
T1 sequence (P21397 whole entry): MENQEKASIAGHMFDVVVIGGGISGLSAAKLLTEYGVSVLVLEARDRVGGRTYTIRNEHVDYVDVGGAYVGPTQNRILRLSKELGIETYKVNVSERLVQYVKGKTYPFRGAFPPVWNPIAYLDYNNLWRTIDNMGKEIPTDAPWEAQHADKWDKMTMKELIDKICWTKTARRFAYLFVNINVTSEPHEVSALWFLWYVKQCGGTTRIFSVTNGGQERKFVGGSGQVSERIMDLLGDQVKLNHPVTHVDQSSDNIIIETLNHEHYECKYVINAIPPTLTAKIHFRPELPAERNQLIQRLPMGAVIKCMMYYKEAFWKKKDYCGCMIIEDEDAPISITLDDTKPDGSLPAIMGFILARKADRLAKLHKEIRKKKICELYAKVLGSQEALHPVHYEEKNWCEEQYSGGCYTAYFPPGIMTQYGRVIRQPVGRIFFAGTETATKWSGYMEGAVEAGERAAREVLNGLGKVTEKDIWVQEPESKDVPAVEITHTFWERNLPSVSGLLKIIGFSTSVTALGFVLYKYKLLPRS

[2] = molecular target: T2, Amine oxidase [flavin-containing] B (Homo sapiens, UniProt P27338); test: Inhibition of human recombinant MAO-B using benzylamine as substrate by fluorescence based analysis
T2 sequence (P27338 whole entry): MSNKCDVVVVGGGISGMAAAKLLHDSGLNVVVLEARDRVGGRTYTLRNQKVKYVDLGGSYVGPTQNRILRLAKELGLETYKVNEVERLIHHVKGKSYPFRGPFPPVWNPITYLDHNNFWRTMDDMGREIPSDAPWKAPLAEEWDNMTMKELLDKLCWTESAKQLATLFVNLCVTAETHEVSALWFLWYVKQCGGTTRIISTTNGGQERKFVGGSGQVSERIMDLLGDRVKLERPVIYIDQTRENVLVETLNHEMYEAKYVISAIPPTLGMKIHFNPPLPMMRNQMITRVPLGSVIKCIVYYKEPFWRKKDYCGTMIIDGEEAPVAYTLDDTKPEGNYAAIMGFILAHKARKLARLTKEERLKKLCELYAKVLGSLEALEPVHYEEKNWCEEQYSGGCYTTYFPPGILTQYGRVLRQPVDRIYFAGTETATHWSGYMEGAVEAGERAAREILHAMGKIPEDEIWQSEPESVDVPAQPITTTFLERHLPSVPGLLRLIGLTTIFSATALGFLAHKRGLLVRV

Acetylcholinesterase [3] = molecular target: Acetylcholinesterase (Electrophorus electricus, UniProt O42275); test: Inhibition of electric eel AChE using acetylthiocholine iodide as substrate by Ellman's method
[4] = Inhibition of equine serum BChE using butyrylthiocholine iodide as substrate by measured after 30 mins Ellman's method; assay type: cell-free, Equus caballus
[5] = Inhibition of equine serum BChE using butyrylthiocholine iodide as substrate incubated for 30 mins by Ellman's method; design: species or system Equus caballus
[6] = molecular target: Indoleamine 2,3-dioxygenase 1 (Homo sapiens, UniProt P14902); test: Inhibition of IDO1 (unknown origin)
Acetylcholinesterase [7] = molecular target: T3, Acetylcholinesterase (Homo sapiens, UniProt P22303); test: Inhibition of human AChE using acetylthiocholine iodide as substrate by Ellman's method
Cholinesterase [8] = molecular target: T4, Cholinesterase (Homo sapiens, UniProt P06276); test: Inhibition of human BChE using butyrylthiocholineiodide as substrate by Ellman's method
Acetylcholinesterase [9] = molecular target: T3, Acetylcholinesterase; test: Inhibition of human recombinant AChE using acetylthiocholine iodide as substrate preincubated for 30 mins followed by substrate addition and measured for 60 mins by Ellman's method
Cholinesterase [10] = molecular target: T4, Cholinesterase; test: Inhibition of BChE (unknown origin) incubated for 10 mins by Ellman's method
Cholinesterase [11] = molecular target: Cholinesterase (Equus caballus, UniProt P81908); test: Inhibition of equine serum BuChE using S-butyrylthiocholine chloride as substrate by Ellman's method; assay type: cell-free
Cholinesterase (Equus caballus, UniProt P81908), sequence (P81908 whole entry): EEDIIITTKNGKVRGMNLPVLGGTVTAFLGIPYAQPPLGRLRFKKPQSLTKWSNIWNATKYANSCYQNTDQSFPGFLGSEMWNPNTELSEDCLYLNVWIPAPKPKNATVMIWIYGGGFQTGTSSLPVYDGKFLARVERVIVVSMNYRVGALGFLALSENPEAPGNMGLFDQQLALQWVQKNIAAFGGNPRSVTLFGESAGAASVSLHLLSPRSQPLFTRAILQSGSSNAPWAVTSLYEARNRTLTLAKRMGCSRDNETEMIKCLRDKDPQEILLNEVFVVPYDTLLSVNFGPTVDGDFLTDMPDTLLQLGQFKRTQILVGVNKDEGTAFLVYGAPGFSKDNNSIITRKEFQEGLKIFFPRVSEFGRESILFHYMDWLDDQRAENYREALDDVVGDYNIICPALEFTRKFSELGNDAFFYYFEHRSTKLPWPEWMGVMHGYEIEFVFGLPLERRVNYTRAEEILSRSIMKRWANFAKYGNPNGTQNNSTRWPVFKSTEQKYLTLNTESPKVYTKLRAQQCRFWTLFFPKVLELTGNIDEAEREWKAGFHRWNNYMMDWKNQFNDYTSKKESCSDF

T4 sequence (P06276 whole entry): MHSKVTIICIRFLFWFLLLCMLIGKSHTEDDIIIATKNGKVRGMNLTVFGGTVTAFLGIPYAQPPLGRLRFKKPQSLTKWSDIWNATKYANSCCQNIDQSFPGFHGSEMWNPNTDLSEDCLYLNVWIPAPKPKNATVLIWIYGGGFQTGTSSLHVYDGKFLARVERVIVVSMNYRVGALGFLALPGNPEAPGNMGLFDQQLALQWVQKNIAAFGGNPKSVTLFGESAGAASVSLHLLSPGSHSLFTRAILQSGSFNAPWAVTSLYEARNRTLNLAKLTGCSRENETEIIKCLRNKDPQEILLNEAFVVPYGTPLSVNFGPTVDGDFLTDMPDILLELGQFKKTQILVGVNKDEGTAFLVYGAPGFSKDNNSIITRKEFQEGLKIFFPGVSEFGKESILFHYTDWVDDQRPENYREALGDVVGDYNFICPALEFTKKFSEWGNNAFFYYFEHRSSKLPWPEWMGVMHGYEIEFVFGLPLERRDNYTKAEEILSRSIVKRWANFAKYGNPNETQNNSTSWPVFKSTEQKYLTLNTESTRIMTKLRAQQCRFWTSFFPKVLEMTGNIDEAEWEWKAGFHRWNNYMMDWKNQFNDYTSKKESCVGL
T3 sequence (P22303 whole entry): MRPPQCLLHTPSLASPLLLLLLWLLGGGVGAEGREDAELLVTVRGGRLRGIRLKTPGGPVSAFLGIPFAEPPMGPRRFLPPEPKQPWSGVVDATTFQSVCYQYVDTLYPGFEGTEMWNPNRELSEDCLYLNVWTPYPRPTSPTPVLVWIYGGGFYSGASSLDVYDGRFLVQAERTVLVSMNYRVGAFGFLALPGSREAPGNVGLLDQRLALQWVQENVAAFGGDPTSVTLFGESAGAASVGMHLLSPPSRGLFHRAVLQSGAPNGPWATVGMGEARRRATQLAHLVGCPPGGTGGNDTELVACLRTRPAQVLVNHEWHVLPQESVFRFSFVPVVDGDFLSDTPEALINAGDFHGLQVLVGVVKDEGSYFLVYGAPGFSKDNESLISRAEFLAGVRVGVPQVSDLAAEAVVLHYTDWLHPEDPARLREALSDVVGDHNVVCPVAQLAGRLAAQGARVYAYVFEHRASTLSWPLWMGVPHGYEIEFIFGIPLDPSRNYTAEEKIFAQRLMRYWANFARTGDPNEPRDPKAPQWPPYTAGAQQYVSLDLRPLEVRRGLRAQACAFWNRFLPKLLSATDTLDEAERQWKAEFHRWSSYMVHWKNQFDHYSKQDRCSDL
Acetylcholinesterase (Electrophorus electricus, UniProt O42275), sequence (O42275 whole entry): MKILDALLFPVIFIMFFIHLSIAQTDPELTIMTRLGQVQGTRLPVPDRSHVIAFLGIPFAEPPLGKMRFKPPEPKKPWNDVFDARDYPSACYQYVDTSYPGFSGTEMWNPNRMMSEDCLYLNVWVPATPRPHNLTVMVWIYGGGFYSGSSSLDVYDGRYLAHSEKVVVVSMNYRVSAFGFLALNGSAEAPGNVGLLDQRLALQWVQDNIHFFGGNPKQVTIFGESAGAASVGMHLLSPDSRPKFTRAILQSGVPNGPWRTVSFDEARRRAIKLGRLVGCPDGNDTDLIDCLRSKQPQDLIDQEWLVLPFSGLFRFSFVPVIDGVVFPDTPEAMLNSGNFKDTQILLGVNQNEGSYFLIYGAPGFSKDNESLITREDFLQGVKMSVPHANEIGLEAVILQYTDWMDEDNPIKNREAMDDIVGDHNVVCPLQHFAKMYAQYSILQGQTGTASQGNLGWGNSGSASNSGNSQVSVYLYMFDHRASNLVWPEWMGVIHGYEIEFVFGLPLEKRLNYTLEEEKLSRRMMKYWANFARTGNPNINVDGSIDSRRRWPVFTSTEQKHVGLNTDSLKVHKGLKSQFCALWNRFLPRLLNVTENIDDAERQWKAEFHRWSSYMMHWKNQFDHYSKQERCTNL
Indoleamine 2,3-dioxygenase 1, sequence (P14902 whole entry): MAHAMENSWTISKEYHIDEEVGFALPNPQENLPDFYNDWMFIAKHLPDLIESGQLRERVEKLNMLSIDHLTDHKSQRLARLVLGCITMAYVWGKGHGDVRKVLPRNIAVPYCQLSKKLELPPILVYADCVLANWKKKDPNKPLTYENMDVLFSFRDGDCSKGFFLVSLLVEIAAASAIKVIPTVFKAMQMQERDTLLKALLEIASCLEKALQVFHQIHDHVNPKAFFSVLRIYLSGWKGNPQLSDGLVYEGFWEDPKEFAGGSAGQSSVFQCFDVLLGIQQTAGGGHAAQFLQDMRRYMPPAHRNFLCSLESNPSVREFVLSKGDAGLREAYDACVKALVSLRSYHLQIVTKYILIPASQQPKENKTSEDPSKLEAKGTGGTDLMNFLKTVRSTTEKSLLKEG

COc1cccc(COc2ccc(C(C)=O)c(OCc3cn(CCc4c[nH]c5ccccc45)nn3)c2)c1
pIC50 [1]: 4.13 | pIC50 [2]: 5.43 | pIC50 (Acetylcholinesterase [3]): < 4.00 | pIC50 [4]: 6.04

COc1cccc(COC(Cn2ccnc2)c2ccc(F)c(F)c2)c1 (stereo unspecified)
pIC50 [5]: 4.88 | pIC50 [6]: 4.64

Cc1cc2c(cc1C)[n+](Cc1ccccc1C)cn2C(c1ccccc1)c1ccccc1
pIC50 (Acetylcholinesterase [7]): 5.38 | pIC50 (Cholinesterase [8]): 6.82

Clc1ccc(C(Cn2ccnc2)OCc2csc3c(Cl)cccc23)c(Cl)c1 (stereo unspecified) [SERTACONAZOLE]
pIC50 (Acetylcholinesterase [9]): 7.00

CN1CCc2c(c3cc(F)ccc3n2CCNC23CC4CC(C)(CC(C)(C4)C2)C3)C1
pIC50 (Cholinesterase [10]): 4.40 | pIC50 (Cholinesterase [11]): 6.14
